Assay results taken from PMC2879341 (Chembiochem : a European journal of chemical biology, 2009).

Target: T1, GilR (Streptomyces griseoflavus, UniProt Q7X2G7)
T1 sequence (Q7X2G7 1-498): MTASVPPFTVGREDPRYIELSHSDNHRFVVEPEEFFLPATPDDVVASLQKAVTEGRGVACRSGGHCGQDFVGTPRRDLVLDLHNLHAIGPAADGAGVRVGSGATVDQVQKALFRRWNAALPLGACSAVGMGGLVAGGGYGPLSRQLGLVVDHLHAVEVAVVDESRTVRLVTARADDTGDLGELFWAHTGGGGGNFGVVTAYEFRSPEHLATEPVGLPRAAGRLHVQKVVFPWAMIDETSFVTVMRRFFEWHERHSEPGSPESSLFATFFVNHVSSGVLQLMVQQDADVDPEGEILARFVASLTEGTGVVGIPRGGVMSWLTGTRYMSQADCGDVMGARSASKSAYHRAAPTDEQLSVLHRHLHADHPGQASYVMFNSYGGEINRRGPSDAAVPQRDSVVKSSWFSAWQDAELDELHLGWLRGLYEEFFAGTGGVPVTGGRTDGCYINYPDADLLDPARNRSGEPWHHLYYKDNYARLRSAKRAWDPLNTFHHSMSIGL
Assay: UV spectrum of purified protein
Type: binding
Conditions: covalent

SMILES: Cc1cc2nc3c(=O)[nH]c(=O)nc-3n(C[C@H](O)[C@H](O)[C@H](O)COP(=O)(O)OP(=O)(O)OC[C@H]3O[C@@H](n4cnc5c(N)ncnc54)[C@H](O)[C@@H]3O)c2cc1C [FAD]
- UV spectrum of purified protein; further analysis in supplement: FAD in fact is covalently bound to the enzyme (see the Supporting Information)
